# In patent US9770460B2, “Non-digestible oligosaccharides for oral induction of tolerance against dietary proteins” (N.V. NUTRICIA, priority 2010, dated 2017):
# Where no end group is shown, it is not given here.
# Tested on: whey sensitized animals
# Experiment: Mouse model of whey protein allergy: ear swelling after oral pretreatment with peptide mixtures (Example 4)
# Type: in vivo, mice
# Settings: Example 4, pretreatment prior to whey sensitization
# Source text: Three- to four-week-old pathogen free female C3H/HeOuJ mice (Charles River Laboratories, Maastricht, The Netherlands) were used for this experiment. The mice were maintained on cow's milk protein free standard mouse chow (AIN-93G soy, Special Diets Services, Wijk bij Duurstede, the Netherlands).
# The AIN-93G control diet was mixed with non-digestible oligosaccharides (2% w/w). The same non-digestible oligosaccharides were used as in example 1.
# 18-amino-acid-long synthetic peptides of beta-lactoglobulin were obtained from JPT Peptide Technologies (Berlin, Germany) (Table 4). Whey protein was purchased from DMV International (Veghel, The Netherlands). […]. Phosphate-buffered saline (PBS) was obtained from Cambrex Bio Science (Verviers, Belgium).
# Shortly prior to the experiment, the peptides were suspended in PBS. The peptides were combined in three mixtures, namely peptides 1-4 in mixture 1, peptides 5-7 in mixture 2 and peptides 8 and 9 in mixture 3. The final concentration of each peptide in the mixture was 8 mg/ml. […] Before and 1 h after the challenge, the ear thickness was measured using a digital micrometer (Mitutoyo, Veenendaal, the Netherlands). The difference in the ear thickness (ear swelling) is an indication for the acute allergic response and is expressed as delta μm.
sequence,measurement,value
"AASDISLLDAQSAPLRVY [Peptide 3, beta-lactoglobulin AA 25-42]","allergic response / synergy with NDO, in words",did not show these synergistic effects with NDO
